Experimental data taken from the NIST ThermoML archive (doi:10.1021/je0340755).

Assay: xn = mol fraction of the nth substance listed
Conditions: 101.3 kPa, Liquid; for viscosity: Capillary tube (Ostwald / Ubbelohde) method

CCC(O)CO (stereo not given) [1,2-butanediol] + O
Conditions | mass density [kg/m3] | speed of sound [m/s] | viscosity [mPa·s]
298.15 K, x2 = 0.0471 | 999.56 | 1455.6 | 54.4
298.15 K, x2 = 0.1478 | 1001.36 | 1480.8 | 47.22
298.15 K, x2 = 0.2481 | 1003.09 | 1497.6 | 39.78
298.15 K, x2 = 0.3491 | 1005.12 | 1517.2 | 32.56
298.15 K, x2 = 0.443 | 1007.55 | 1545.9 | 26.42
298.15 K, x2 = 0.4971 | 1009.14 | 1564.2 | 23.17
298.15 K, x2 = 0.5552 | 1010.88 | 1581.1 | 19.92
298.15 K, x2 = 0.6494 | 1013.49 | 1600.3 | 15.11
298.15 K, x2 = 0.7491 | 1015.73 | 1622.2 | 10.48
298.15 K, x2 = 0.8547 | 1016.98 | 1666.2 | 5.959
298.15 K, x2 = 0.9081 | 1015.65 | 1670.6 | 3.869
298.15 K, x2 = 0.9144 | 1015.26 | 1667.8 | 3.635
298.15 K, x2 = 0.9255 | 1014.39 | 1660.6 | 3.232
298.15 K, x2 = 0.9353 | 1013.39 | 1651 | 2.885
298.15 K, x2 = 0.9543 | 1010.65 | 1623.1 | 2.241
298.15 K, x2 = 0.9562 | 1010.3 | 1619.5 | 2.179
298.15 K, x2 = 0.9598 | 1009.61 | 1612.5 | 2.063
298.15 K, x2 = 0.97 | 1007.33 | 1589.6 | 1.743
298.15 K, x2 = 0.9806 | 1004.38 | 1561 | 1.425
298.15 K, x2 = 0.9902 | 1001.1 | 1531.6 | 1.152
298.15 K, x2 = 0.9923 | 1000.29 | 1524.8 | 1.095
298.15 K, x2 = 0.9956 | 998.96 | 1513.5 | 1.006
308.15 K, x2 = 0.0471 | 992.15 | 1426 | 28.67
308.15 K, x2 = 0.1478 | 993.92 | 1443.9 | 25.18
308.15 K, x2 = 0.2481 | 995.73 | 1452.8 | 21.61
308.15 K, x2 = 0.3491 | 997.81 | 1474 | 18.1
308.15 K, x2 = 0.443 | 1000.17 | 1496.6 | 15.04
308.15 K, x2 = 0.4971 | 1001.68 | 1508.1 | 13.39
308.15 K, x2 = 0.5552 | 1003.37 | 1519.5 | 11.69
308.15 K, x2 = 0.6494 | 1006.11 | 1542.9 | 9.091
308.15 K, x2 = 0.7491 | 1008.77 | 1585.6 | 6.504
308.15 K, x2 = 0.8547 | 1010.49 | 1640.7 | 3.9
308.15 K, x2 = 0.9081 | 1009.43 | 1647.5 | 2.651
308.15 K, x2 = 0.9144 | 1009.1 | 1645.9 | 2.509
308.15 K, x2 = 0.9255 | 1008.36 | 1641.4 | 2.26
308.15 K, x2 = 0.9353 | 1007.51 | 1635.3 | 2.044
308.15 K, x2 = 0.9543 | 1005.2 | 1617.1 | 1.635
308.15 K, x2 = 0.9562 | 1004.91 | 1614.7 | 1.594
308.15 K, x2 = 0.9598 | 1004.33 | 1610 | 1.519
308.15 K, x2 = 0.97 | 1002.44 | 1594.4 | 1.308
308.15 K, x2 = 0.9806 | 1000 | 1574.5 | 1.094
308.15 K, x2 = 0.9902 | 997.32 | 1552.8 | 0.906
308.15 K, x2 = 0.9923 | 996.67 | 1547.5 | 0.865
308.15 K, x2 = 0.9956 | 995.58 | 1538.9 | 0.802
318.15 K, x2 = 0.0471 | 984.63 | 1396.5 | 16.54
318.15 K, x2 = 0.1478 | 986.4 | 1415 | 14.53
318.15 K, x2 = 0.2481 | 988.13 | 1422.4 | 12.47
318.15 K, x2 = 0.3491 | 990.15 | 1441.3 | 10.46
318.15 K, x2 = 0.443 | 992.53 | 1462.7 | 8.706
318.15 K, x2 = 0.4971 | 994.08 | 1474.1 | 7.758
318.15 K, x2 = 0.5552 | 995.8 | 1485.9 | 6.789
318.15 K, x2 = 0.6494 | 998.48 | 1510 | 5.314
318.15 K, x2 = 0.7491 | 1001.03 | 1553.8 | 3.848
318.15 K, x2 = 0.8547 | 1003.2 | 1614.7 | 2.378
318.15 K, x2 = 0.9081 | 1003 | 1630.6 | 1.675
318.15 K, x2 = 0.9144 | 1002.81 | 1630.5 | 1.595
318.15 K, x2 = 0.9255 | 1002.34 | 1629 | 1.455
318.15 K, x2 = 0.9353 | 1001.75 | 1626 | 1.334
318.15 K, x2 = 0.9543 | 999.98 | 1614.7 | 1.105
318.15 K, x2 = 0.9562 | 999.74 | 1613.2 | 1.083
318.15 K, x2 = 0.9598 | 999.27 | 1610 | 1.041
318.15 K, x2 = 0.97 | 997.69 | 1599 | 0.923
318.15 K, x2 = 0.9806 | 995.59 | 1584.6 | 0.804
318.15 K, x2 = 0.9902 | 993.21 | 1568.4 | 0.699
318.15 K, x2 = 0.9923 | 992.62 | 1564.4 | 0.677
318.15 K, x2 = 0.9956 | 991.63 | 1557.9 | 0.642
328.15 K, x2 = 0.0471 | 976.76 | 1381.6 | 10.36
328.15 K, x2 = 0.1478 | 978.45 | 1392.6 | 9.126
328.15 K, x2 = 0.2481 | 980.12 | 1404 | 7.863
328.15 K, x2 = 0.3491 | 982.09 | 1421.6 | 6.626
328.15 K, x2 = 0.443 | 984.39 | 1440 | 5.547
328.15 K, x2 = 0.4971 | 985.9 | 1450.7 | 4.962
328.15 K, x2 = 0.5552 | 987.59 | 1464.3 | 4.363
328.15 K, x2 = 0.6494 | 990.29 | 1490.7 | 3.447
328.15 K, x2 = 0.7491 | 993 | 1532.6 | 2.533
328.15 K, x2 = 0.8547 | 995.64 | 1592.7 | 1.615
328.15 K, x2 = 0.9081 | 995.96 | 1611.9 | 1.177
328.15 K, x2 = 0.9144 | 995.86 | 1612.7 | 1.127
328.15 K, x2 = 0.9255 | 995.56 | 1612.9 | 1.04
328.15 K, x2 = 0.9353 | 995.14 | 1611.8 | 0.964
328.15 K, x2 = 0.9543 | 993.79 | 1604.2 | 0.821
328.15 K, x2 = 0.9562 | 993.61 | 1603.4 | 0.807
328.15 K, x2 = 0.9598 | 993.23 | 1601.5 | 0.781
328.15 K, x2 = 0.97 | 991.96 | 1594 | 0.707
328.15 K, x2 = 0.9806 | 990.23 | 1583.2 | 0.633
328.15 K, x2 = 0.9902 | 988.23 | 1571.2 | 0.568
328.15 K, x2 = 0.9923 | 987.73 | 1568.9 | 0.554
328.15 K, x2 = 0.9956 | 986.9 | 1563.4 | 0.532
338.15 K, x2 = 0.0471 | 968.75 | 1365.8 | 6.896
338.15 K, x2 = 0.1478 | 970.35 | 1376.1 | 6.061
338.15 K, x2 = 0.2481 | 971.96 | 1387.3 | 5.201
338.15 K, x2 = 0.3491 | 973.85 | 1402.7 | 4.361
338.15 K, x2 = 0.443 | 976.07 | 1420.1 | 3.638
338.15 K, x2 = 0.4971 | 977.53 | 1430.2 | 3.251
338.15 K, x2 = 0.5552 | 979.18 | 1443.6 | 2.859
338.15 K, x2 = 0.6494 | 981.87 | 1468.5 | 2.268
338.15 K, x2 = 0.7491 | 984.71 | 1507.6 | 1.689
338.15 K, x2 = 0.8547 | 987.72 | 1565.4 | 1.114
338.15 K, x2 = 0.9081 | 988.49 | 1587.3 | 0.843
338.15 K, x2 = 0.9144 | 988.47 | 1588.5 | 0.812
338.15 K, x2 = 0.9255 | 988.32 | 1590.4 | 0.759
338.15 K, x2 = 0.9353 | 988.06 | 1591 | 0.713
338.15 K, x2 = 0.9543 | 987.1 | 1588.9 | 0.626
338.15 K, x2 = 0.9562 | 986.96 | 1588.1 | 0.618
338.15 K, x2 = 0.9598 | 986.68 | 1587.6 | 0.602
338.15 K, x2 = 0.97 | 985.68 | 1583.6 | 0.558
338.15 K, x2 = 0.9806 | 984.29 | 1577.1 | 0.514
338.15 K, x2 = 0.9902 | 982.66 | 1570.2 | 0.476
338.15 K, x2 = 0.9923 | 982.25 | 1568 | 0.467
338.15 K, x2 = 0.9956 | 981.55 | 1564.9 | 0.455
